Values after ≈ are worked out from the molar mass of the structure shown. Active and inactive are the calls of the source. No cut-off for these calls is given here.
Experiments:
Candida albicans [1] = assay: Antifungal activity against Candida albicans MY 1055 after 24 hrs by NCCLS broth microdilution method; type: functional; details: for MIC: MY 1055, 24 h
Cryptococcus neoformans [2] = assay: Antifungal activity against Cryptococcus neoformans MY 2061 after 40 hrs by NCCLS broth microdilution method; type: functional
[3] = system: Meyerozyma guilliermondii; assay: Antifungal activity against Candida guilliermondii CLY 346 after 24 hrs by NCCLS broth microdilution method; type: functional
[4] = system: Meyerozyma guilliermondii; assay: Antifungal activity against Candida guilliermondii CLY 308 after 24 hrs by NCCLS broth microdilution method; type: functional
Nakaseomyces glabratus [5] = assay: Antifungal activity against Candida glabrata MY 1381 after 24 hrs by NCCLS broth microdilution method; type: functional
Nakaseomyces glabratus [6] = assay: Antifungal activity against Candida glabrata CLY 574 after 24 hrs by NCCLS broth microdilution method; type: functional
Candida albicans [7] = assay: Antifungal activity against Candida albicans SC 53124 after 24 hrs by NCCLS broth microdilution method; type: functional
Candida albicans [8] = assay: Antifungal activity against fluconazole-resistant Candida albicans MY 2301 after 24 hrs by NCCLS broth microdilution method; type: functional
Pichia kudriavzevii = assay: Antifungal activity against Candida krusei CLY 549 after 24 hrs by NCCLS broth microdilution method; type: functional
Clavispora lusitaniae = assay: Antifungal activity against Candida lusitaniae MY 1396 after 24 hrs by NCCLS broth microdilution method; type: functional
Candida parapsilosis = assay: Antifungal activity against Candida parapsilosis ATCC 22019 after 24 hrs by NCCLS broth microdilution method; type: functional
Candida tropicalis = assay: Antifungal activity against Candida tropicalis MY 1012 after 40 hrs by NCCLS broth microdilution method; type: functional
Cryptococcus neoformans [9] = assay: Antifungal activity against Cryptococcus neoformans H 99 after 40 hrs by NCCLS broth microdilution method; type: functional
[10] = system: Cytochrome b (Saccharomyces cerevisiae (strain ATCC 204508 / S288c) (Baker's yeast)), P00163 [L198F]; assay: Inhibition of Saccharomyces cerevisiae isolate 1 cytochrome bc1 complex harboring cytochrome b L198F mutant
Chain of Cytochrome b (Saccharomyces cerevisiae (strain ATCC 204508 / S288c) (Baker's yeast)), P00163 [L198F] (P00163 whole entry L198F): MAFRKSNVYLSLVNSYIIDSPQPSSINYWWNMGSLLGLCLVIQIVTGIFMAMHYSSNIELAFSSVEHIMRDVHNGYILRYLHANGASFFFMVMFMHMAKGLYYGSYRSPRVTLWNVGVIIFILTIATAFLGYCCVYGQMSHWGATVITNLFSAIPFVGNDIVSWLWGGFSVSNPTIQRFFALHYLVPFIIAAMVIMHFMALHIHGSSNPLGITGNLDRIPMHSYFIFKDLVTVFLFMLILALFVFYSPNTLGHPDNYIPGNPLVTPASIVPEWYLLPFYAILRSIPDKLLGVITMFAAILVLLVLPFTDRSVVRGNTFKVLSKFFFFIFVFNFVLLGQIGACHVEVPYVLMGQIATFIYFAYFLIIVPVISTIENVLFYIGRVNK

[11] = system: Cytochrome b (Candida albicans (strain SC5314 / ATCC MYA-2876) (Yeast)), P0C8L0 [G37S]; assay: Inhibition of Candida albicans isolate 6 cytochrome bc1 complex harboring cytochrome b G37S mutant
Chain of Cytochrome b (Candida albicans (strain SC5314 / ATCC MYA-2876) (Yeast)), P0C8L0 [G37S] (P0C8L0 whole entry G37S): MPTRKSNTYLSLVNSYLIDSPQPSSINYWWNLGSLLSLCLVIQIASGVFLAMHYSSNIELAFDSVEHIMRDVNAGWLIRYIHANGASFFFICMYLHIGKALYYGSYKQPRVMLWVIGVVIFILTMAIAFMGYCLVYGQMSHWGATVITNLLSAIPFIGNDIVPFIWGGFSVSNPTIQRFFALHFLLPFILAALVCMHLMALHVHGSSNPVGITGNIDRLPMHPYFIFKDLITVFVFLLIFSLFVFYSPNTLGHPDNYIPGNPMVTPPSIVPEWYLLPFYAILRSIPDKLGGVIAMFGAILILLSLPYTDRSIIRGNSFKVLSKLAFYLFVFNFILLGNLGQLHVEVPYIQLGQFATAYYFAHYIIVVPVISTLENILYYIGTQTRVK

[12] = system: Cytochrome b (Candida albicans (strain SC5314 / ATCC MYA-2876) (Yeast)), P0C8L0 [G37D]; assay: Inhibition of Candida albicans isolate 4 cytochrome bc1 complex harboring cytochrome b G37D mutant
Chain of Cytochrome b (Candida albicans (strain SC5314 / ATCC MYA-2876) (Yeast)), P0C8L0 [G37D] (P0C8L0 whole entry G37D): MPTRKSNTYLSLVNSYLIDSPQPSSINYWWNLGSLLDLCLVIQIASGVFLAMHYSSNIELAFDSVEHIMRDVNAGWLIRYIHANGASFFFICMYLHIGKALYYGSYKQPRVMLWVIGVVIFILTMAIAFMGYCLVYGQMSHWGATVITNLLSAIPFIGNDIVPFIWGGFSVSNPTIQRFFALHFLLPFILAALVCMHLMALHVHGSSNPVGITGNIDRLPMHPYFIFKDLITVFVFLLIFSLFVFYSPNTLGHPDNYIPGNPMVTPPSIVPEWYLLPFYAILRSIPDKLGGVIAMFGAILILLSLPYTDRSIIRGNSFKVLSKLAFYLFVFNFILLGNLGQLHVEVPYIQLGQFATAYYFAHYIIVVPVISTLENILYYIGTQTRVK

[13] = system: Cytochrome b (Candida albicans (strain SC5314 / ATCC MYA-2876) (Yeast)), P0C8L0 [G37C]; assay: Inhibition of Candida albicans isolate 3 cytochrome bc1 complex harboring cytochrome b G37C mutant
Chain of Cytochrome b (Candida albicans (strain SC5314 / ATCC MYA-2876) (Yeast)), P0C8L0 [G37C] (P0C8L0 whole entry G37C): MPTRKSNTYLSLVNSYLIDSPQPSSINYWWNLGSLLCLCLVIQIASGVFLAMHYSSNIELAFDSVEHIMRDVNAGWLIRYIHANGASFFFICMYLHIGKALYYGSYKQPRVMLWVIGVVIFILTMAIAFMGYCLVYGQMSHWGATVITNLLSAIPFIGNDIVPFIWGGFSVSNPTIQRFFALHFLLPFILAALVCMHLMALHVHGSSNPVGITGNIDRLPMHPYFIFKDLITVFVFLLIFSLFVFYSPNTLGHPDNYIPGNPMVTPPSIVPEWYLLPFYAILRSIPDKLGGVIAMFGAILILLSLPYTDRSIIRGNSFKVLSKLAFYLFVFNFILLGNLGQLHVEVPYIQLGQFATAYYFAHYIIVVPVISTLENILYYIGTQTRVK

[14] = system: Cytochrome b (Candida albicans (strain SC5314 / ATCC MYA-2876) (Yeast)), P0C8L0 [Q22E]; assay: Inhibition of Candida albicans isolate 2 cytochrome bc1 complex harboring cytochrome b Q22E mutant
Chain of Cytochrome b (Candida albicans (strain SC5314 / ATCC MYA-2876) (Yeast)), P0C8L0 [Q22E] (P0C8L0 whole entry Q22E): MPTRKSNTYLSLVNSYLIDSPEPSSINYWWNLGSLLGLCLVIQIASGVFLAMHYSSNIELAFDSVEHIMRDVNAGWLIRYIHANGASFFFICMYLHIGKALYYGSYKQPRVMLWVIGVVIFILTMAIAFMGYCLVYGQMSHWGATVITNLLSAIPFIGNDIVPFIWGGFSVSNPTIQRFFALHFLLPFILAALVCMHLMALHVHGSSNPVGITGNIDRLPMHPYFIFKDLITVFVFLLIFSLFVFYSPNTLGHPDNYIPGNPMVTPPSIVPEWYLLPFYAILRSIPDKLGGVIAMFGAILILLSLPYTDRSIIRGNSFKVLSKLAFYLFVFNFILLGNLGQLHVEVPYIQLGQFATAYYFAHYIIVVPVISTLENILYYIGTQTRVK

[15] = system: Cytochrome b (Candida albicans (strain SC5314 / ATCC MYA-2876) (Yeast)), P0C8L0 [S20I]; assay: Inhibition of Candida albicans isolate 1 cytochrome bc1 complex harboring cytochrome b S20I mutant
Chain of Cytochrome b (Candida albicans (strain SC5314 / ATCC MYA-2876) (Yeast)), P0C8L0 [S20I] (P0C8L0 whole entry S20I): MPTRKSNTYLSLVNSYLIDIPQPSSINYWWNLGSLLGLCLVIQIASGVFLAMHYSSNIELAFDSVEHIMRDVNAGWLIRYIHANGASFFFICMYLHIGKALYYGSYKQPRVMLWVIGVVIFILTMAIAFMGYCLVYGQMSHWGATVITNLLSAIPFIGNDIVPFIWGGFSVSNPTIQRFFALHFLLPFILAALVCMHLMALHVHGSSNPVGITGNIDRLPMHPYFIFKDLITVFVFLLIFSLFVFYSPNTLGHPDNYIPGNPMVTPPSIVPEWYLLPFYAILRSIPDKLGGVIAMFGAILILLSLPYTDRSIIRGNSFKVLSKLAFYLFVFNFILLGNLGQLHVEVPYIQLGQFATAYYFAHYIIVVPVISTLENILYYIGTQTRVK

[16] = system: Cytochrome b (Saccharomyces cerevisiae (strain ATCC 204508 / S288c) (Baker's yeast)), P00163 [G37S]; assay: Inhibition of Saccharomyces cerevisiae isolate 2 cytochrome bc1 complex harboring cytochrome b G37S mutant
Chain of Cytochrome b (Saccharomyces cerevisiae (strain ATCC 204508 / S288c) (Baker's yeast)), P00163 [G37S] (P00163 whole entry G37S): as the sequence (P00163 whole entry L198F) above, with G37S, F198L counted along it

[17] = system: Cytochrome b (Saccharomyces cerevisiae (strain ATCC 204508 / S288c) (Baker's yeast)), P00163 [G37D]; assay: Inhibition of Saccharomyces cerevisiae isolate 2 cytochrome bc1 complex harboring cytochrome b G37D mutant
Chain of Cytochrome b (Saccharomyces cerevisiae (strain ATCC 204508 / S288c) (Baker's yeast)), P00163 [G37D] (P00163 whole entry G37D): as the sequence (P00163 whole entry L198F) above, with G37D, F198L counted along it

[18] = system: Cytochrome b (Saccharomyces cerevisiae (strain ATCC 204508 / S288c) (Baker's yeast)), P00163 [Q22T]; assay: Inhibition of Saccharomyces cerevisiae isolate 2 cytochrome bc1 complex harboring cytochrome b Q22T mutant
Chain of Cytochrome b (Saccharomyces cerevisiae (strain ATCC 204508 / S288c) (Baker's yeast)), P00163 [Q22T] (P00163 whole entry Q22T): as the sequence (P00163 whole entry L198F) above, with Q22T, F198L counted along it

[19] = system: Cytochrome b (Saccharomyces cerevisiae (strain ATCC 204508 / S288c) (Baker's yeast)), P00163 [Q22E]; assay: Inhibition of Saccharomyces cerevisiae isolate 3 cytochrome bc1 complex harboring cytochrome b Q22E mutant
Chain of Cytochrome b (Saccharomyces cerevisiae (strain ATCC 204508 / S288c) (Baker's yeast)), P00163 [Q22E] (P00163 whole entry Q22E): as the sequence (P00163 whole entry L198F) above, with Q22E, F198L counted along it

[20] = system: Cytochrome b (Saccharomyces cerevisiae (strain ATCC 204508 / S288c) (Baker's yeast)), P00163 [S20L]; assay: Inhibition of Saccharomyces cerevisiae isolate 1 cytochrome bc1 harboring cytochrome b S20L mutant
Chain of Cytochrome b (Saccharomyces cerevisiae (strain ATCC 204508 / S288c) (Baker's yeast)), P00163 [S20L] (P00163 whole entry S20L): as the sequence (P00163 whole entry L198F) above, with S20L, F198L counted along it

[21] = system: Cytochrome b (Saccharomyces cerevisiae (strain ATCC 204508 / S288c) (Baker's yeast)), P00163 [S20T]; assay: Inhibition of Saccharomyces cerevisiae isolate 1 cytochrome bc1 harboring cytochrome b S20T mutant
Chain of Cytochrome b (Saccharomyces cerevisiae (strain ATCC 204508 / S288c) (Baker's yeast)), P00163 [S20T] (P00163 whole entry S20T): as the sequence (P00163 whole entry L198F) above, with S20T, F198L counted along it

[22] = Selectivity ratio of MIC for Candida albicans MY 1055 to IC50 for Candida albicans MY 1055 NADH:cytochrome c oxidoreductase; type: functional
[23] = Inhibition of Candida albicans MY 1055 NADH:cytochrome c oxidoreductase

SMILES	MIC (Candida albicans [1])	Activity (Cryptococcus neoformans [2])	Activity [3]	Activity [4]	Activity (Nakaseomyces glabratus [5])	Activity (Nakaseomyces glabratus [6])	Activity (Candida albicans [7])	Activity (Candida albicans [8])	Activity (Candida albicans [1])	Activity (Pichia kudriavzevii)	Activity (Clavispora lusitaniae)	Activity (Candida parapsilosis)	Activity (Candida tropicalis)	Activity (Cryptococcus neoformans [9])	further results
C/C=C/[C@@H]1[C@H]2C[C@@H](C)CC[C@@H]2C(C)=C[C@H]1/C(=N\O)c1c(O)c(-c2ccc(O)cc2)c[nH]c1=O	> 10 mg/L														
C/C=C/[C@@H]1[C@H]2C[C@@H](C)CC[C@@H]2C(C)=C[C@H]1/C1=N/NCCOCC12C(=O)NC=C(c1ccc(O)cc1)C2=O (some centres not stated)	> 10 mg/L														
CC[C@H](C)C[C@H](C)CCCCCCCCC(=O)N[C@H]1C[C@@H](O)[C@@H](NCCN)NC(=O)[C@@H]2[C@@H](O)CCN2C(=O)[C@H]([C@H](O)CCN)NC(=O)[C@H]([C@H](O)[C@@H](O)c2ccc(O)cc2)NC(=O)[C@@H]2C[C@@H](O)CN2C(=O)[C@H]([C@@H](C)O)NC1=O		Active	Active	Active	Active	Active	Active	Active	Active	Active	Active	Active	Active	Active	
CO/C(=C/C(N)=O)[C@H](C)[C@H](/C=C/c1csc(-c2csc([C@@H](C)/C=C/C=C/C(C)C)n2)n1)OC															inhibition [10]: Active; inhibition [11]: Active; inhibition [12]: Active; inhibition [13]: Active; inhibition [14]: Active; inhibition [15]: Active; inhibition [16]: Active; inhibition [17]: Active; inhibition [18]: Active; inhibition [19]: Active; inhibition [20]: Active; inhibition [21]: Active
C[C@@H]1[C@H](O)[C@@H](C)/C=C/C=C/C=C/C=C/C=C/C=C/C=C/[C@H](O[C@@H]2O[C@H](C)[C@@H](O)[C@H](N)[C@@H]2O)C[C@@H]2O[C@](O)(C[C@@H](O)C[C@@H](O)[C@H](O)CC[C@@H](O)C[C@@H](O)CC(=O)O[C@H]1C)C[C@H](O)[C@H]2C(=O)O		Active	Active	Active	Active	Active	Active	Active	Active	Active	Active	Active	Active	Active	
OC(Cn1cncn1)(Cn1cncn1)c1ccc(F)cc1F		Active	Active	Active	Active	Active	Active	Active	Active	Active	Active	Active	Active	Active	
C/C=C/[C@H]1C(c2noc3c(-c4ccc(O)cc4)c[nH]c(=O)c23)C=C(C)[C@H]2CC[C@H](C)C[C@@H]21 (single isomer, unassigned)	> 10 mg/L														
C/C=C/[C@H]1C(c2n[nH]c3c(-c4ccc(O)cc4)c[nH]c(=O)c23)C=C(C)[C@H]2CC[C@H](C)C[C@@H]21 (single isomer, unassigned)	0.25 mg/L (≈ 0.582 µM)														Ratio [22]: 10; IC50 [23]: 0.003 mg/L (≈ 0.00698 µM)
